Measured values taken from PMC10931632, “Inhibition of Insulin-Regulated Aminopeptidase by Imidazo [1,5-α]pyridines—Synthesis and Evaluation” (International Journal of Molecular Sciences, 2024).
≈ marks a conversion by molar mass, not a printed value. Entries after “also recorded” stand apart in the source; their conditions may differ.

Experiments:
human IRAP = target: T1, human IRAP (Homo sapiens, UniProt Q9UIQ6); test: Inhibition of human membrane-bound IRAP overexpressed in HEK293 cells (hIRAP); type: biochemical
T1 construct: expressed in transfected cells
T1 sequence (Q9UIQ6 whole entry): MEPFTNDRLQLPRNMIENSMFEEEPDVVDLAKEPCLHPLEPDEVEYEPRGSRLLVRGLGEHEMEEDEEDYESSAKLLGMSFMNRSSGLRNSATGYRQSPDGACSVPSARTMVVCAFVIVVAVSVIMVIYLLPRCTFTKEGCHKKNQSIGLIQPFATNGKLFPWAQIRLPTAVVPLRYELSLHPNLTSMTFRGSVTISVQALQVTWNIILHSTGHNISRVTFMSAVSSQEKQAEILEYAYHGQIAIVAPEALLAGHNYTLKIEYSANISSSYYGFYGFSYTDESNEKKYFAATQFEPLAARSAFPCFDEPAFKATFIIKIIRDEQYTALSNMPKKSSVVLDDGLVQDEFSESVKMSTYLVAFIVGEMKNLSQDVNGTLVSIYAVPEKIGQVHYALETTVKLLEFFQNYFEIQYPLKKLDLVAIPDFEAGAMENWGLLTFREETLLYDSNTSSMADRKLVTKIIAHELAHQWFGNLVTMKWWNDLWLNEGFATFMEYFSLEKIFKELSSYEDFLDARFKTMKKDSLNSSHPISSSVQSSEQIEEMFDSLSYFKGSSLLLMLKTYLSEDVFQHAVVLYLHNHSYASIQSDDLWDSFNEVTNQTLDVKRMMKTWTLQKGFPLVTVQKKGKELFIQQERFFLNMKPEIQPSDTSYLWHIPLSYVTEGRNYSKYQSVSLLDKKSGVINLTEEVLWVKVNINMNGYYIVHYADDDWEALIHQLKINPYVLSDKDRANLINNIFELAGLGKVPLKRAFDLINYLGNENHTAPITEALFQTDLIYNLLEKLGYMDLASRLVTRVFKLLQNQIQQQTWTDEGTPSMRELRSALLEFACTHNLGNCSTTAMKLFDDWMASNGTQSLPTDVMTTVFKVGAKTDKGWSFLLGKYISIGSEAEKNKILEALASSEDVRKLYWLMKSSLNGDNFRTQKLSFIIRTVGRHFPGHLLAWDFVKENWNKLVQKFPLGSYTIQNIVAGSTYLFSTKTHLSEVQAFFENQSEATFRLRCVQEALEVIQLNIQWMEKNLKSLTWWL
Description: (§1) Human IRAP and APN were overexpressed, as previously described.
(§2) Membrane preparations from frozen CHO cells and HEK293T cells with overexpressed IRAP and APN were prepared and handled as previously described.
(§3) Details for the assay used to evaluate the inhibitory activity of the compounds have already been published.

[1] = target: T2, human aminopeptidase N (APN) (Homo sapiens, UniProt P15144); test: Inhibition of human aminopeptidase N overexpressed in HEK293 cells; type: biochemical; settings: for APN IC50 (µM)/pIC50: human aminopeptidase N overexpressed in HEK293 cells
T2 construct: expressed in transfected cells; host or cells: HEK293 / HEK293T cells, membrane preparations
T2 sequence (P15144 whole entry): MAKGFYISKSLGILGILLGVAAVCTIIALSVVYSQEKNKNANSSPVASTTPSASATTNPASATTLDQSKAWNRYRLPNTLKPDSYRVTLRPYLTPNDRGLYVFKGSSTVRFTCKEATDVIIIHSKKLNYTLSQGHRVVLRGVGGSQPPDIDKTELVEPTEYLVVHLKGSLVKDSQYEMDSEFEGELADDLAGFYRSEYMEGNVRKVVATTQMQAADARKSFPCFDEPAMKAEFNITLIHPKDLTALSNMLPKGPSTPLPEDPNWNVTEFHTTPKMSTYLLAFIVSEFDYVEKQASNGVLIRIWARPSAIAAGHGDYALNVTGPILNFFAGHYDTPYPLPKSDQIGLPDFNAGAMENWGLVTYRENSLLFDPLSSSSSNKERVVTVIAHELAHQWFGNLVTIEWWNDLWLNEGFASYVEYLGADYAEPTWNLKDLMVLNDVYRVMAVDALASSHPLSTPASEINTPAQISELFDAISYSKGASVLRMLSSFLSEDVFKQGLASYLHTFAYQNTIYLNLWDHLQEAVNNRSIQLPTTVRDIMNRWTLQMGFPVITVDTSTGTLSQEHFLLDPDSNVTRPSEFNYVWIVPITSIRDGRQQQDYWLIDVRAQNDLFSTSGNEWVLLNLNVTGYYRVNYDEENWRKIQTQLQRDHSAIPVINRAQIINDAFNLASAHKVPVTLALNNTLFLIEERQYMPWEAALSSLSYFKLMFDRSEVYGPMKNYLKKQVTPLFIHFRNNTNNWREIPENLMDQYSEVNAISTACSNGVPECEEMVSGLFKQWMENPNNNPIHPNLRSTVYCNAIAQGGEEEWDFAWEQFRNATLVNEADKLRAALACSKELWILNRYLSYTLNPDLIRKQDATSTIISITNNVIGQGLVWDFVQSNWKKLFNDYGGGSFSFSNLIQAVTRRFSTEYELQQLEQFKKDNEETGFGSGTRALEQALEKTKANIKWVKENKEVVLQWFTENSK
Description: as §1, §2, §3

[2] = LogD7.4 (DMPK Wave 1 panel); type: physicochemical; settings: pH 7.4; average ± SD of three test occasions
Description: (§4) Pre-clinical profiling of the compounds was performed at AstraZeneca R&D in Gothenburg, Sweden, applying an integrated panel of assays referred to as the DMPK Wave 1 panel.

[3] = Dried DMSO solubility in aqueous phosphate buffer pH 7.4; type: physicochemical; settings: thermodynamic from solid; aqueous phosphate buffer (PBS) at pH 7.4; read-out: Sol. (dried DMSO solubility)
Description: as §4

[4] = Human liver microsome intrinsic clearance; type: in vitro ADME; settings: human liver microsomes; for microsomal CLint: read-out: HLM Clint; for half-life: read-out: HLM t ½
Description: as §4

[5] = Rat hepatocytes intrinsic clearance; type: in vitro ADME; settings: for hepatocyte CLint: read-out: Rat hep. Clint; for half-life: read-out: Rat hep. t ½
Description: as §4

[6] = Human plasma protein binding; type: in vitro ADME; settings: read-out: PPB
Description: as §4

Human plasma stability = type: in vitro ADME; settings: after 18 h incubation
Description: as §4

[7] = target: T3, human recombinant soluble IRAP (sIRAP) (Homo sapiens, UniProt Q9UIQ6); test: Inhibition of human recombinant soluble IRAP (sIRAP); type: biochemical; settings: human recombinant soluble enzyme
T3 construct: as well as the recombinant soluble enzyme (sIRAP)
T3 sequence (Q9UIQ6 155-1025 limits assumed): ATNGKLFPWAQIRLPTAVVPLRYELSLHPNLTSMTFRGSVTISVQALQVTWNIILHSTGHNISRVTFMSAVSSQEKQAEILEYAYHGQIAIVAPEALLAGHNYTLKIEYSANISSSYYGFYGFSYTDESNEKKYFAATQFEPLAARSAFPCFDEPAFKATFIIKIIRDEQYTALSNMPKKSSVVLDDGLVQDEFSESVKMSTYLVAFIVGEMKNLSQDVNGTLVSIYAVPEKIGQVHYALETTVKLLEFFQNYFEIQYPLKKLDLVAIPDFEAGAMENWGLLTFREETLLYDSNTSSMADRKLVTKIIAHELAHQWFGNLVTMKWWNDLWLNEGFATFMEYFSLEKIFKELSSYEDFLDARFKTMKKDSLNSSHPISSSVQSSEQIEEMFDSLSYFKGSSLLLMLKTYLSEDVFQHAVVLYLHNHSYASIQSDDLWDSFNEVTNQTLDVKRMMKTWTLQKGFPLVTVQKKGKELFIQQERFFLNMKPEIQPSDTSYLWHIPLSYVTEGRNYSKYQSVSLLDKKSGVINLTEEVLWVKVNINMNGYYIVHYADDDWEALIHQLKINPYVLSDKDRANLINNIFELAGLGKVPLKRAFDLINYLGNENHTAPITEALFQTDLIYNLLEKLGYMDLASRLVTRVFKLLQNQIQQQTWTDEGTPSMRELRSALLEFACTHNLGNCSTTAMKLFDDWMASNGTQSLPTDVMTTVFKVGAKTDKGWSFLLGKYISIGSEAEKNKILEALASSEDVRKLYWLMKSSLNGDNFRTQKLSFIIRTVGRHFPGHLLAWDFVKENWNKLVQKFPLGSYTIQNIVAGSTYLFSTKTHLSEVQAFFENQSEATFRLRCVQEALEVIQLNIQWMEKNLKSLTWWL
Text: as §3

IRAP [8] = target: T4, IRAP (Cricetulus griseus, UniProt A0A8C2M8D5); test: Mechanism of action enzyme kinetics with variable L-Leu-pNA substrate on IRAP from CHO cell membranes; type: biochemical, Chinese hamster; settings: Vmax decreases, Km constant
T4 sequence (A0A8C2M8D5 1-1025): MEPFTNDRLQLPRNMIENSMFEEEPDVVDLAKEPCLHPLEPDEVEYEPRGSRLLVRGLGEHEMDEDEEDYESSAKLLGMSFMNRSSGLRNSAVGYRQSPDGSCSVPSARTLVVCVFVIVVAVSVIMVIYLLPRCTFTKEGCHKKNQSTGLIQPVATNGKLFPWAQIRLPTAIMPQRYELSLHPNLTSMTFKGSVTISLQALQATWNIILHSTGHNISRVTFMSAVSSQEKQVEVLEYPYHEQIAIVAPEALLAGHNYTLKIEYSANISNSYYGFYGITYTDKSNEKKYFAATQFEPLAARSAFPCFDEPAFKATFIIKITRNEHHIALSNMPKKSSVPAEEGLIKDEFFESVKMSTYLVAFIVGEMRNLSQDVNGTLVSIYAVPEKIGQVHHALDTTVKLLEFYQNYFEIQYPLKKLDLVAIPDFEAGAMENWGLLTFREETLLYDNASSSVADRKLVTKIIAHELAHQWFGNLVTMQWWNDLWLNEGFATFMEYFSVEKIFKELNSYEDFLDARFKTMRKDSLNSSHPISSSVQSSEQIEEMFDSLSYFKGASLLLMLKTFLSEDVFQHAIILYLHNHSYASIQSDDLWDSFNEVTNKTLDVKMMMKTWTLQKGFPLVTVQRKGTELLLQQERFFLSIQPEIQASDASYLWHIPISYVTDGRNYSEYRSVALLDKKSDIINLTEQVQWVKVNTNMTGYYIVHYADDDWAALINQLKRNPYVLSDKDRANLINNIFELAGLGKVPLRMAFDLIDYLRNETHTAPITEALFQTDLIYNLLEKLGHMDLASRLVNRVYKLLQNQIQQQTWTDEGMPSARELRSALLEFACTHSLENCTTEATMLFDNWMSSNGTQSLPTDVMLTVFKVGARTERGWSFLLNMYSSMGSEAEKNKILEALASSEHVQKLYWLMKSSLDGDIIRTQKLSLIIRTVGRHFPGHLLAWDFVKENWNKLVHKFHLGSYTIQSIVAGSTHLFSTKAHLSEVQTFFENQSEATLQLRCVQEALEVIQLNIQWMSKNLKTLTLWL
Description: The design of the enzyme kinetics experiments followed that of the inhibitory experiments, except for the substrate concentrations that were variable at 0.1, 0.2, 0.3, 0.4, 0.8, 1.6 and 2.4 mM. The serial dilution of the compound stock solution was reproduced across all eight rows of a set of four 96-well plates. Four technical replicates were obtained at each substrate concentration by adding the same substrate solution to the top or bottom four rows of each 96-well plate, i.e., a total of four plates were used for this experiment, including a no-substrate control. The absorbance of these plates was then measured every 10 min to follow the enzymatic reaction over time. Data obtained in the presence of 100 µM inhibitor were used to define maximal IRAP inhibition under these assay conditions, i.e., this slope was subtracted from those obtained at lower inhibitor concentrations. Data were fitted to a model for non-competitive inhibition within GraphPad and compared with models for competitive and uncompetitive binding. The non-competitive inhibition model explains the experimental data with a probability of 99.99%, compared to 0.01% and <0.01% for competitive and uncompetitive inhibition, respectively. […]

IRAP [9] = tested on: IRAP; set-up: method as in PMID 27078680; settings: jump-dilution experiments; cited from earlier work

IC50 (human IRAP)	logD [2]	solubility [3]	microsomal CLint [4]	half-life [4]	hepatocyte CLint [5]	half-life [5]	fraction unbound [6]	Plasma Stab (Human plasma stability)	IC50 [7]	impact on the activity of human APN ([1]; at concentrations up to 125 µM)	SMILES	APN IC50 (µM)/pIC50 [1]	mode of inhibition versus substrate (IRAP [8])	reversibility of binding to IRAP (IRAP [9])
50000 nM											COc1ccccc1-c1nc(C2CCCN2C(=O)N[C@H](C)c2ccccc2)n2ccccc12 (mixture of isomers) [Compound 6b, 2-(1-(2-Methoxyphenyl)imidazo [1,5-a]pyridin-3-yl)-N-((R)-1-phenylethyl)pyrrolidine-1-carboxamide]	neither compound showed any inhibitory activity; also recorded: inactive (2)		
	3.3 ± 0.4	0.6 to 2 µM (≈ 0.266 to 0.885 µg/mL)	> 300 µL/min/mg	< 2.3 min	> 300 µL/min/1e6 cells	< 2.3 min	0.007 ± 0.001	76 ± 6 % compound remaining			COc1ccccc1-c1nc(C2CCCN2C(=S)NCc2ccccc2)n2ccccc12 (stereo not drawn) [Compound 6v, N-Benzyl-2-(1-(2-methoxyphenyl)imidazo [1,5-a]pyridin-3-yl)pyrrolidine-1-carbothioamide]			
1300 nM									1000 nM	no impact	COc1ccccc1-c1nc(C2CCCN2C(=O)N[C@@H](C)c2ccccc2)n2ccccc12 (mixture of isomers) [Compound 6a, 2-(1-(2-Methoxyphenyl)imidazo [1,5-a]pyridin-3-yl)-N-((S)-1-phenylethyl)pyrrolidine-1-carboxamide]	neither compound showed any inhibitory activity; also recorded: inactive (2)	non-competitive binding with the substrate	binds reversibly
	2.9 ± 0.6	55 ± 12 µM (≈ 22.8 µg/mL)	> 300 µL/min/mg	< 2.3 min	> 300 µL/min/1e6 cells	< 2.3 min	0.006 ± 0.001	99 ± 5 % compound remaining			COc1ccccc1-c1nc(CN(C)C(=O)N[C@@H](C)c2ccccc2)n2ccccc12 [Compound 6m, (S)-1-((1-(2-Methoxyphenyl)imidazo [1,5-a]pyridin-3-yl)methyl)-1-methyl-3-(1-phenylethyl)urea]			
